For the assay, the target named is SHP2 (Homo sapiens (Human), UniProt Q06124). Nature of the assay: SHP2-catalyzed hydrolysis of p-nitrophenyl phosphate (pNPP). Type of assay: biochemical. To be noted: pNPP substrate, pH 7.0, 25° C. How it is done: Libraries 11a-d were screened at ˜5 μM for SHP2 inhibitors without further purification. The ability of the library components to inhibit the SHP2-catalyzed hydrolysis of p-nitrophenyl phosphate (pNPP) was evaluated at pH 7.0 and 25° C. More particularly, the phosphatase activity of SHP2 was assayed using p-nitrophenyl phosphate (pNPP) as a substrate at 25° C. in 50 mM 3,3-dimethylglutarate buffer, pH 7.0, containing 1 mM EDTA with an ionic strength of […] adjusted by NaCl. The libraries were screened in a 96-well format at 5 μM compound concentration. […] The nonenzymatic hydrolysis of pNPP was corrected by measuring the control without the addition of enzyme. The amount of product p-nitrophenol was determined from the absorbance at 405 nm detected by a Spectra MAX340 microplate spectrophotometer (Molecular Devices, Sunnyvale, Calif.) using a molar extinction coefficient of 18,000 M^−1 cm^−1. […] IC50 values for selected resynthesized and purified hits were calculated by fitting the absorbance at 405 nm versus inhibitor concentration to the following equation: AI/A0=IC50/(IC50+[I]) where AI is the absorbance at 405 nm of the sample in the presence of the inhibitor; A0 is the absorbance at 405 nm in the absence of inhibitor; and [I] is the concentration of the inhibitor.
Sequence of SHP2 (Q06124 whole entry, looked up): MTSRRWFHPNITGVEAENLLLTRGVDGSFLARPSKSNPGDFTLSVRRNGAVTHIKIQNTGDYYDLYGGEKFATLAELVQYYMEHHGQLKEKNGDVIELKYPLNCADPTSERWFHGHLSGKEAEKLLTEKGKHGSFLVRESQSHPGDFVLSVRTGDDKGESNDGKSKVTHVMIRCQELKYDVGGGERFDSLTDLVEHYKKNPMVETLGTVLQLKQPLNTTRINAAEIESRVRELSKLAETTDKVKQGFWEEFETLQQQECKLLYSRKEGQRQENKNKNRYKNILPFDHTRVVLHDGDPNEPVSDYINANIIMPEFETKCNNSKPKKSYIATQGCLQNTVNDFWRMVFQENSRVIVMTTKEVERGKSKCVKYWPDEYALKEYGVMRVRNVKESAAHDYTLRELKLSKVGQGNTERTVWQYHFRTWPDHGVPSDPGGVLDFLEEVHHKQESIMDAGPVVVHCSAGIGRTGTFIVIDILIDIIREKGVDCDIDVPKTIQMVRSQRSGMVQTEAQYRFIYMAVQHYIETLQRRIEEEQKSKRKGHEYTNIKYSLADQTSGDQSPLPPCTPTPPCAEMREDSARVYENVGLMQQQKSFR
Molecule `Cn1c(-c2cccc(NC(=O)C(=O)Nc3ccccc3-c3ccc(CO)o3)c2)c(I)c2cc(C(=O)O)c(O)cc21` [11a-23, 6-hydroxy-2-(3-(2-((2-(5-(hydroxymethyl)furan-2-yl)phenyl)amino)-2-oxoacetamido)phenyl)-3-iodo-1-methyl-1H-indole-5-carboxylic acid] registered an IC50 of 0.37 ± 0.01 µM.
The same measure for `CCCN(CC1CC1)C(=O)CCC(=O)Nc1cccc(-c2c(I)c3cc(C(=O)O)c(O)cc3n2C)c1` [11c-10, 2-(3-(4-((cyclopropylmethyl)(propyl)amino)-4-oxobutanamido)phenyl)-6-hydroxy-3-iodo-1-methyl-1H-indole-5-carboxylic acid]: more than 20 µM; for `Cn1c(-c2cccc(NC(=O)C(=O)Nc3cccc(-c4ccc(C#N)cc4)c3)c2)c(I)c2cc(C(=O)O)c(O)cc21` [11a-25, 2-(3-(2-((4′-cyano-[1,1′-biphenyl]-3-yl)amino)-2-oxoacetamido)phenyl)-6-hydroxy-3-iodo-1-methyl-1H-indole-5-carboxylic acid]: 0.42 ± 0.02 µM.
The same measure for `Cn1c(-c2cccc(NC(=O)CCC(=O)Nc3ccc(OC(F)(F)F)cc3)c2)c(I)c2cc(C(=O)O)c(O)cc21` [11c-7, 6-hydroxy-3-iodo-1-methyl-2-(3-(4-oxo-4-((4-(trifluoromethoxy)phenyl)amino)butanamido)phenyl)-1H-indole-5-carboxylic acid]: 8.6 ± 2.3 µM; for `Cn1c(-c2cccc(NC(=O)C(=O)Nc3cccc(I)c3)c2)c(I)c2cc(C(=O)O)c(O)cc21` [11a-20, 6-hydroxy-3-iodo-2-(3-(2-((3-iodophenyl)amino)-2-oxoacetamido)phenyl)-1-methyl-1H-indole-5-carboxylic acid]: 5.42 ± 1.01 µM; for `Cn1c(-c2cccc(NC(=O)C(=O)Nc3ccc(F)cc3)c2)c(I)c2cc(C(=O)O)c(O)cc21` [11a-15, 2-(3-(2-((4-fluorophenyl)amino)-2-oxoacetamido)phenyl)-6-hydroxy-3-iodo-1-methyl-1H-indole-5-carboxylic acid]: 1.84 ± 0.09 µM.
The same measure for `Cn1c(-c2cccc(NC(=O)CCC(=O)Nc3ccc(OCc4ccccc4)c(Cl)c3)c2)c(I)c2cc(C(=O)O)c(O)cc21` [11c-3, 2-(3-(4-((4-(benzyloxy)-3-chlorophenyl)amino)-4-oxobutanamido)phenyl)-6-hydroxy-3-iodo-1-methyl-1H-indole-5-carboxylic acid]: 5 ± 0.9 µM.
In turn, `Cn1c(-c2cccc(NC(=O)C(=O)Nc3cccc(OC(F)(F)F)c3)c2)c(I)c2cc(C(=O)O)c(O)cc21` [11a-17, 6-hydroxy-3-iodo-1-methyl-2-(3-(2-oxo-2-((3-(trifluoromethoxy)phenyl)amino)acetamido)phenyl)-1H-indole-5-carboxylic acid] displayed a half-inhibitory concentration (IC50) of 2.39 ± 0.15 µM. This IC50 lies about 2.1-fold lower than the previous one.
Molecule `Cn1c(-c2cccc(NC(=O)CCC(=O)Nc3nccs3)c2)c(I)c2cc(C(=O)O)c(O)cc21` [11c-11, 6-hydroxy-3-iodo-1-methyl-2-(3-(4-oxo-4-(thiazol-2-ylamino)butanamido)phenyl)-1H-indole-5-carboxylic acid] gave an IC50 of 26 ± 5 µM.

By IC50 is commonly meant the point on the concentration scale where inhibition reaches its midpoint.

For the origin of these results see US9522881B2, “Hydroxyindole carboxylic acid based inhibitors for oncogenic Src homology-2 domain containing protein tyrosine phosphatase-2 (SHP2)” (Indiana University Research and Technology Corporation, priority 2013, dated 2016).
